Structures can show the parent of a compound that is named as a salt.

The IC50 is the concentration that gives 50% inhibition.

Series [1] addresses T1, IRAK4 (Homo sapiens, UniProt Q9NWZ3).
T1 construct: with 0.1 nM IRAK4, 1.6 μM of biotinylated peptide substrate and 10 μM ATP
T1 sequence (Q9NWZ3 1-460): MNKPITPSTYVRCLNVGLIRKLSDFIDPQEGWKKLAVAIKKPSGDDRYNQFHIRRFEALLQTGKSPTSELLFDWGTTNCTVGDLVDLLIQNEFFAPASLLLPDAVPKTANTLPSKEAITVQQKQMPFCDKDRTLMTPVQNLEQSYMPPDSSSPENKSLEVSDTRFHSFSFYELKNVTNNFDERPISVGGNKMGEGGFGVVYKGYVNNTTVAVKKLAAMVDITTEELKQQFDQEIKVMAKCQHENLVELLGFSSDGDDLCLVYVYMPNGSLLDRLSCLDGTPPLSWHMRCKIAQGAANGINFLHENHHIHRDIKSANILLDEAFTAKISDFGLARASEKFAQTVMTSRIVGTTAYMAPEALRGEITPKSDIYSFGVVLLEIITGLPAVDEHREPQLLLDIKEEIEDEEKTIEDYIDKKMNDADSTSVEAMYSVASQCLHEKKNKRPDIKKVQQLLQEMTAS
Description: IRAK4 MSD Biochemical Assay (1 mM ATP, 2 h). The settings on record: room temperature, read-out: IRAK4 MSD Biochemical Assay (1 mM ATP, 2 h) IC50. A digest of the protocol:
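Run with 1 mM ATP and […] for 2 h, then quenched with EDTA, pH 8. The phosphorylated biotinylated peptide was captured on streptavidin plates and detected with anti-phospho-threonine antibody plus Sulfo-Tag secondary by MSD electrochemiluminescence.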

In series [2] the target is T2, MDR1 (P-gp) (Homo sapiens, UniProt P08183).
T2 construct: host or cells: MDCK cells
Description: MDR1-MDCK assay (efflux ratio). The class given is in vitro ADME. As to conditions: human, MDCK-MDR1, 1 μM compound, 120 minutes incubation; read-out: MDR1-MDCK Efflux Ratio; (B-A/A-B). The essentials:
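Human MDR1-transfected MDCK monolayers, cultured 7 days on transwell inserts with TEER checked, were dosed with compound at 1 μM in HBSS-HEPES. Transport was measured in both A-B and B-A directions. Efflux ratio came from the directional permeabilities, with mass balance also calculated.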

T2 sequence (P08183 whole entry): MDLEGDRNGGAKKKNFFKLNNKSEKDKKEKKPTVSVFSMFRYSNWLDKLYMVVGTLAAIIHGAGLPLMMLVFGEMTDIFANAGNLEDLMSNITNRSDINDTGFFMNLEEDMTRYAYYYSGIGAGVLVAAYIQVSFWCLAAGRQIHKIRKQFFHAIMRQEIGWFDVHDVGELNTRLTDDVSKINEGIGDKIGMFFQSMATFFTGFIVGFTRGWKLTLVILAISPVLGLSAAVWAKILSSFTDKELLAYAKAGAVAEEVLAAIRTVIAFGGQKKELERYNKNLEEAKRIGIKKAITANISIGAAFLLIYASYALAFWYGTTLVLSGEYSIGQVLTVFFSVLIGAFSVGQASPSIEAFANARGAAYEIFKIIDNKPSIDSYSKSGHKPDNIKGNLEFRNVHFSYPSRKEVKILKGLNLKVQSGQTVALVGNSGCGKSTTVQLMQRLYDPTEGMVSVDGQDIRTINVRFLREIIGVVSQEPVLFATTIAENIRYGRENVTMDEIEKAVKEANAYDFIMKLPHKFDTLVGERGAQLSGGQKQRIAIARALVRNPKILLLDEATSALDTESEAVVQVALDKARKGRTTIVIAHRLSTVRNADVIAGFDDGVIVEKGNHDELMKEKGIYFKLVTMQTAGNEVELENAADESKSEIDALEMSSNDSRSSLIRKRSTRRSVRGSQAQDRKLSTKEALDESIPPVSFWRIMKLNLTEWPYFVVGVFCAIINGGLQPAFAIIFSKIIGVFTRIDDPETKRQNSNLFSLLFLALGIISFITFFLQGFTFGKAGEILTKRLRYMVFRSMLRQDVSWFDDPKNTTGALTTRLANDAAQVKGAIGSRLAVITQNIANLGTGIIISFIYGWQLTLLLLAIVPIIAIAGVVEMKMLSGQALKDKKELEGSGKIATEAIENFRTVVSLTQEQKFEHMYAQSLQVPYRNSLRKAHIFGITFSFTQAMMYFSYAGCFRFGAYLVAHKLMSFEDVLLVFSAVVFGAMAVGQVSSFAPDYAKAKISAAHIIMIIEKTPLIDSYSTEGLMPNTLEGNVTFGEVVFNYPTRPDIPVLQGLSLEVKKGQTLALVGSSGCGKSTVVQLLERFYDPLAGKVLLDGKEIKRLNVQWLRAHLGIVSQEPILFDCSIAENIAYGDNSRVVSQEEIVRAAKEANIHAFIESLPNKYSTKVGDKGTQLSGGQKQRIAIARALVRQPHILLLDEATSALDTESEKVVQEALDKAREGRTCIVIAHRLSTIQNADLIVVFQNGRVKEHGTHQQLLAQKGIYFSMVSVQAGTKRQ

Turning to `Cc1cnc2c(NC(=O)c3cc4cn(C56COC(C)(C5)C6)nc4cc3OC(C)C)cnn2c1` [Example 94, 6-Isopropoxy-2-(1-methyl-2-oxabicyclo[2.1.1]hexan-4-yl)-N-(6-methylpyrazolo[1,5-a]pyrimidin-3-yl)-2H-indazole-5-carboxamide], the IC50 in series [1] is 1.3 nM. Moreover, in series [2], the efflux ratio at 120 min, 1 μM amounted to 1.4.
As to `CC(C)Oc1cc2nn(C34COC(C)(C3)C4)cc2cc1C(=O)Nc1cccc(C(F)F)n1` [Example 88, N-(6-(difluoromethyl)pyridin-2-yl)-6-isopropoxy-2-(1-methyl-2-oxabicyclo[2.1.1]hexan-4-yl)-2H-indazole-5-carboxamide trifluoroacetate], the IC50 in series [1] was found to be 0.1 nM. Also, the efflux ratio at 120 min, 1 μM in series [2] came out at 0.5.
Regarding `COc1ncccc1NC(=O)c1cc2cn(C3CCOCC3)nc2cc1OC(C)C` [Example 69, 6-Isopropoxy-N-(2-methoxypyridin-3-yl)-2-(tetrahydro-2H-pyran-4-yl)-2H-indazole-5-carboxamide], the IC50 in series [1] is 1 nM. In series [2], the efflux ratio at 120 min, 1 μM turned out to be 1.
In the same order, the values of `CC(C)Oc1cc2nn([C@@H]3CCCOC3)cc2cc1C(=O)Nc1cccc(C(F)F)n1` (single isomer, unassigned) [Example 43] are 0.2 nM and 0.6.
Regarding `Cl.O=C(Nc1cccc(C(F)F)n1)c1cc2cn(C3CCOCC3)nc2cc1OCC1CC(F)(F)C1` [Example 49, 6-((3,3-Difluorocyclobutyl)methoxy)-N-(6-(difluoromethyl)pyridin-2-yl)-2-(tetrahydro-2H-pyran-4-yl)-2H-indazole-5-carboxamide Hydrochloride], the IC50 in series [1] is 2 nM. The efflux ratio at 120 min, 1 μM in series [2] came out at 1.4.
In the same order, the values of `COc1cccc(NC(=O)c2cc(OC)c3nn(CCC(C)(C)OC)cc3c2)n1.Cl` [Example 15, 7-Methoxy-2-(3-methoxy-3-methylbutyl)-N-(6-methoxypyridin-2-yl)-2H-indazole-5-carboxamide hydrochloride] are 124 nM and 2.5.
Regarding `CC(C)Oc1cc2nn([C@H]3CCOC(C)(C)C3)cc2cc1C(=O)Nc1cccc(C(F)F)n1` (single isomer, unassigned) [Example 47], the IC50 in series [1] came out at 0.2 nM. For the same compound, the efflux ratio at 120 min, 1 μM in series [2] was determined as 1.5.
On to `CC(C)Oc1nc2nn(C3CCCOC3)cc2cc1C(=O)Nc1cnn2cccnc12` (centres unmarked) [Example 36, 6-Isopropoxy-N-(pyrazolo[1,5-a]pyrimidin-3-yl)-2-(tetrahydro-2H-pyran-3-yl)-2H-pyrazolo[3,4-b]pyridine-5-carboxamide], for which the half-maximal inhibitory concentration (IC50) in series [1] is 0.5 nM. In series [2], the efflux ratio at 120 min, 1 μM came out at 2.2.
On the same counts, the results for `CC(C)Oc1cc2nn(C34COC(C)(C3)C4)cc2cc1C(=O)Nc1cnn2cc(Cl)cnc12` [Example 95, N-(6-chloropyrazolo[1,5-a]pyrimidin-3-yl)-6-isopropoxy-2-(1-methyl-2-oxabicyclo[2.1.1]hexan-4-yl)-2H-indazole-5-carboxamide] are 0.3 nM and 0.9.
In the case of `CC(C)Oc1cc2nn(C3CCOCC3)cc2cc1C(=O)Nc1cccn2nccc12.Cl` [Example 71, 6-Isopropoxy-N-(pyrazolo[1,5-a]pyridin-4-yl)-2-(tetrahydro-2H-pyran-4-yl)-2H-indazole-5-carboxamide hydrochloride], the IC50 in series [1] amounted to 6.6 nM. The efflux ratio at 120 min, 1 μM in series [2] is 1.6.
`CC(C)Oc1nc2nn(C[C@H]3CCOC3)cc2cc1C(=O)Nc1ccn(C(F)F)n1` (single isomer, unassigned) [Example 110]: in series [1], the 50% inhibitory concentration (IC50) amounted to 2.8 nM. Further, in series [2], the efflux ratio at 120 min, 1 μM amounted to 2.2.
Take `CO[C@H]1C[C@H](Oc2cc3nn(C4CCOCC4)cc3cc2C(=O)Nc2cccc(C(F)F)n2)C1.Cl` [Example 50, N-(6-(difluoromethyl)pyridin-2-yl)-6-((1R,3R)-3-methoxycyclobutoxy)-2-(tetrahydro-2H-pyran-4-yl)-2H-indazole-5-carboxamide Hydrochloride]: the IC50 in series [1] amounted to 0.2 nM. Also, the efflux ratio at 120 min, 1 μM in series [2] turned out to be 1.4.
In the same order, the values of `CC(C)Oc1cc2nn(C[C@@H]3CCOC3)cc2cc1C(=O)Nc1cccc(C(F)F)n1` (single isomer, unassigned) [Example 21] are 0.5 nM and 0.7.
In the same order, the values of `CC(C)Oc1cc2nn(C3CCOCC3)cc2cc1C(=O)Nc1cnn2cccnc12` [Example 72, 6-Isopropoxy-N-(pyrazolo[1,5-a]pyrimidin-3-yl)-2-(tetrahydro-2H-pyran-4-yl)-2H-indazole-5-carboxamide] are 0.8 nM and 2.1.
As to `COc1cc2nn(C3CCOCC3)cc2cc1C(=O)Nc1ccccn1.O=C(O)C(F)(F)F` [Example 6, 6-Methoxy-N-(pyridin-2-yl)-2-(tetrahydro-2H-pyran-4-yl)-2H-indazole-5-carboxamide trifluoroacetate], the IC50 in series [1] came to 187 nM. Besides, in series [2], the efflux ratio at 120 min, 1 μM was found to be 1.1.
On to `CC(C)Oc1nc2nn(C[C@@H]3CCOC3)cc2cc1C(=O)Nc1cccc(C(F)F)n1` (single isomer, unassigned) [Example 107], for which the IC50 in series [1] stood at 0.3 nM. Besides, the efflux ratio at 120 min, 1 μM in series [2] turned out to be 1.
On to `CC(C)Oc1cc2nn(C34COC(C)(C3)C4)cc2cc1C(=O)Nc1ccn(C)n1` [Example 92, 6-Isopropoxy-N-(1-methyl-1H-pyrazol-3-yl)-2-(1-methyl-2-oxabicyclo[2.1.1]hexan-4-yl)-2H-indazole-5-carboxamide], for which the IC50 in series [1] was found to be 4.8 nM. In series [2], the efflux ratio at 120 min, 1 μM came out at 1.6.
For the compound `CC(C)Oc1cc2nn(C3CCOCC3)cc2cc1C(=O)Nc1ccn(C)n1` [Example 67, 6-Isopropoxy-N-(1-methyl-1H-pyrazol-3-yl)-2-(tetrahydro-2H-pyran-4-yl)-2H-indazole-5-carboxamide], the IC50 in series [1] is 9.5 nM. Besides, the efflux ratio at 120 min, 1 μM in series [2] was found to be 4.6.
Turning to `Cn1cccc(NC(=O)c2cc3cn(C[C@H]4CCOC4)nc3nc2OC2CCC2)c1=O` (single isomer, unassigned) [Example 112], the IC50 in series [1] is 3.4 nM. Also, the efflux ratio at 120 min, 1 μM in series [2] came to 8.3.
Regarding `Cn1cccc(NC(=O)c2cc3cn(C45COC(C)(C4)C5)nc3cc2OC2CCC2)c1=O` [Example 83, 6-Cyclobutoxy-N-(1-methyl-2-oxo-1,2-dihydropyridin-3-yl)-2-(1-methyl-2-oxabicyclo[2.1.1]hexan-4-yl)-2H-indazole-5-carboxamide trifluoroacetate], in series [1], the IC50 is 1.4 nM. For the same compound, the efflux ratio at 120 min, 1 μM in series [2] turned out to be 1.2.
In the same order, the values of `COc1ncccc1NC(=O)c1cc2cn(CC3CCOC3)nc2nc1OC(C)C` (centres unmarked) [Example 78, 6-Isopropoxy-N-(2-methoxypyridin-3-yl)-2-((tetrahydrofuran-3-yl)methyl)-2H-pyrazolo[3,4-b]pyridine-5-carboxamide] are 1.2 nM and 1.4.
Take `Cn1cccc(NC(=O)c2cc3cn(C[C@@H]4CCOC4)nc3nc2OC2CCCC2)c1=O` (single isomer, unassigned) [Example 115]: the half-inhibitory concentration (IC50) in series [1] came out at 1 nM. Moreover, the efflux ratio at 120 min, 1 μM in series [2] stood at 2.3.
`CC(C)Oc1cc2nn(CCC(C)(C)O)cc2cc1C(=O)Nc1ccn(C(F)F)n1` [Example 33, N-(1-(difluoromethyl)-1H-pyrazol-3-yl)-2-(3-hydroxy-3-methylbutyl)-6-isopropoxy-2H-indazole-5-carboxamide]: in series [1], the IC50 was 4.3 nM. In addition, the efflux ratio at 120 min, 1 μM in series [2] came out at 8.6.
In the same order, the values of `CC(C)Oc1cc2nn([C@@]34CC[C@@](C)(C3)OC4)cc2cc1C(=O)Nc1cccc(C(F)F)n1` (single isomer, unassigned) [Example 126] are 0.2 nM and 0.5.
`O=C(Nc1ccn(C(F)F)n1)c1cc2cn(C[C@@H]3CCOC3)nc2nc1OC1CCCC1` (single isomer, unassigned) [Example 117]: the IC50 in series [1] worked out at 2 nM. Also, the efflux ratio at 120 min, 1 μM in series [2] was 2.6.
Consider `Cc1ccn2ncc(NC(=O)c3cc4cn(C5CCCOC5)nc4nc3OC3CCC3)c2n1` (single isomer, unassigned) [Example 133], for which, in series [1], the half-inhibitory concentration (IC50) stood at 1.7 nM. In addition, the efflux ratio at 120 min, 1 μM in series [2] was 2.6.
Consider `CC(C)Oc1cc2nn(CCC(C)(C)O)cc2cc1C(=O)Nc1cccc(C(F)F)n1` [Example 13, N-(6-(difluoromethyl)pyridin-2-yl)-2-(3-hydroxy-3-methylbutyl)-6-isopropoxy-2H-indazole-5-carboxamide], for which the IC50 in series [1] came to 0.4 nM. For the same compound, in series [2], the efflux ratio at 120 min, 1 μM is 1.7.
Take `CC(C)Oc1nc2nn(C[C@H]3CCOC3)cc2cc1C(=O)Nc1cccc2ccnn12` (single isomer, unassigned) [Example 53]: in series [1], the IC50 amounted to 1.5 nM. Moreover, the efflux ratio at 120 min, 1 μM in series [2] amounted to 1.

Source of the values: patent US20230002361A1, “2H-INDAZOLE DERIVATIVES AND THEIR USE IN THE TREATMENT OF DISEASE” (BIOGEN MA INC., priority 2019, published 2023).
